According to patent EP0846119B1, “THIENOPYRIMIDINE DERIVATIVES, THEIR PRODUCTION AND USE AS ENDOTHELIN ANTAGONISTS” (Takeda Chemical Industries, Ltd., priority 1995, dated 1997):
Like-named read-outs stand apart in the source and are kept apart here.

Legend:
[1] = biological target: T1, human ETA 24 endothelin receptor (Homo sapiens, UniProt P25101); assay: Binding Test to ETA receptor expressed in CHO cell (ET-1-stimulated [3H]arachidonic acid release); type: cell-based; conditions: CHO cell expressing human ETA (ETA 24 cells), final concentration of ET-1 6.3x10^-10M, n=2
T1 construct: expressed in transfected cells; host or cells: CHO cells (clone ETA 24)
T1 sequence (P25101 21-427): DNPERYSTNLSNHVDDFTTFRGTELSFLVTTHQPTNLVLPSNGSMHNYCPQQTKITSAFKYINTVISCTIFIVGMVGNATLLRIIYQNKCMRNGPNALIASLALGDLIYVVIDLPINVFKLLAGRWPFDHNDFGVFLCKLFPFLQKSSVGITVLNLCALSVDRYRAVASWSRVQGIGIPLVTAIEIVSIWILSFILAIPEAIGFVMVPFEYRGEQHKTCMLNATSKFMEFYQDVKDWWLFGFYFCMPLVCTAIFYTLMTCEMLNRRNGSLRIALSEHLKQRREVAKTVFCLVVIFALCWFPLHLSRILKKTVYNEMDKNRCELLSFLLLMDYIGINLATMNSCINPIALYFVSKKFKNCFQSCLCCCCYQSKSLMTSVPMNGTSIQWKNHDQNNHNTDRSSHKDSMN
Description: Binding Test to ETA receptor expressed in CHO cell:
cells: CHO cell expressing human ETA 24 endothelin receptor, i.e. ETA 24 cells medium: DMEM 10% FCS Gln, nonessential amino acids, penicillin, streptomycin
Cells were seeded in 12 wells of 24 well plates at a density of 2x10^5 cells/well (1 ml medium/well). On the next day, [^3H]arachidonic acid was added to each well to be 250 nCi(nanocurie)/ml. On the next day, the medium was sucked from the wells by the use of an aspirator to remove free arachidonic acid and floating cells, and then 0.5 ml of medium was added. This procedure was repeated again. After allowing to stand for 30 minutes in a CO2 incubator, the medium was exchanged rapidly.
The sample of compound obtained in Example 5 or compound 16 of Example 11 was stepwise diluted with a buffer solution for dilution, containing 3.15x10^-8M endothelin-1 (ET-1) {20 mM Tris, 5 mM Mg(AcO)2, 2 mM EGTA, 0.03% NaN3, 0.1% BSA, 0.05% CHAPS}. 10 µl of the solution was added to each well (final concentration of ET-1: 6.3x10^-10M). […] After allowing to-stand for 30 minutes in the CO2 incubator, the medium was completely collected and the radio activity of [^3H]arachidonic acid released in the medium was measured by a liquid scintillation counter. IC50 values were calculated by hill plot from the concentration and relative reaction value of each sample. […]

[2] = biological target: T2, human endothelin-B (ETB) receptors (Homo sapiens, UniProt P24530); assay: Binding Test to ETB receptor expressed in an insect cell Sf9 ([125I]endothelin-1 displacement)
T2 construct: made in house; host or cells: Sf9 insect cells (membrane fractions)
T2 sequence (P24530 27-442): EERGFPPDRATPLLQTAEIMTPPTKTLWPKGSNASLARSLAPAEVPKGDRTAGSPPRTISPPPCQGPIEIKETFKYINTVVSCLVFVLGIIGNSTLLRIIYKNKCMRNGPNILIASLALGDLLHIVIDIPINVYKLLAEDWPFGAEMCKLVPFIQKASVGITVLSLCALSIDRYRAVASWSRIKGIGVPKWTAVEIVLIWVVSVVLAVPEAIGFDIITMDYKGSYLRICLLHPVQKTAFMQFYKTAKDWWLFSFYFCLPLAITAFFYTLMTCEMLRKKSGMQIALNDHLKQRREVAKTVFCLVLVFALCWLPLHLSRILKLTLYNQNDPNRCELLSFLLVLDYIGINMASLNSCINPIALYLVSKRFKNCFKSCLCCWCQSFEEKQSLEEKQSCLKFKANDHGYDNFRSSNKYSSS
Description: Binding Test to ETB receptor expressed in an insect cell Sf9:
Endothelin (ET) receptors were prepared by diluting fractions of insect cell (Sf9) membrane having human endothelin-B (ETB) receptors expressed, with an assay buffer {200 mM Tris-HCl, 2 mM EGTA (ethylenegiycol bis(2-aminoethylether) tetra acetic acid), 5 mM magnesium acetate, 0.1% BSA (bovine serum albumin), 0.03% NaN3, 0.5 mM PMSF(phenyl methyl sulfonyl fluoride), 20 µg/ml leupeptin, 4 µg/ml E-64 (products of the Peptide Institute), 1 µg/ml pepstatin, (pH 7.2)} respectively in a concentration of 1.4 µg/ml in the former case and 0.7 µg/ml in the latter case.
To 100 µl of each portion was added 5 nM[^125I] endothelin-1 (2 µl). A dimethylsulfoxide solution (3 µl) of the sample was added thereto and incubated at 25°C fpr 60 minutes.
And, to determine the maximum binding amount (B0) and non-specific binding amount (NSB), lots to which a dimethyl sulfoxide solution (3 µl) or a dimethyl sulfoxide solution (3 µl) containing endothelin-1 (10^-5M) had been added, were also incubated.
These lots were supplemented with 0.05% CHAPS(3-[(3-chloroamidopropyl)dimethylammonio]-1-propanesulfonate)-assay buffer (1.5 ml), subjected to filtration through a glass fiber filter GF/F (trade name; product of Whatman Ltd. (England)), and then washed with the same buffer (1.5 ml).
Radioactivity on the filter was counted in a gamma-counter to determine the Percent Maximum Binding (PMB) in accordance with the aforesaid calculation formula. The concentration causing PMB=50% was determined as IC50 value.

[3] = Sf9 membrane fractions, [125I]endothelin-1, 25°C, 60 minutes, concentration causing PMB=50%, read-out: IC50 value: µM Human endotherin-B receptor
[4] = Table 6, values recur in Table 8, read-out: Binding IC50 (µM) ETB

SMILES	IC50 [1]	IC50 [2, 3]	IC50 [2, 4]
CCS(=O)(=O)NCc1c(-c2ccc(OCOC)cc2)sc2c1c(=O)n(CC(=O)O)c(=O)n2Cc1ccccc1SC [11(16), 2,4(1H,3H)-Dioxo-6-(4-methoxymethoxyphenyl)-1-(2-methylthiobenzyl)-5-(ethanesulfonamidomethyl)thieno[2,3-d]pyrimidine-3-acetic acid]	110 nM	0.054 µM	0.054 µM
COCOc1ccc(-c2sc3c(c2CNS(C)(=O)=O)c(=O)n(CC(=O)O)c(=O)n3Cc2ccccc2SC)cc1 [Example 5, 2,4(1H,3H)-dioxo-6-(4-methoxymethoxyphenyl)-1-(2-methylthiobenzyl)-5-(methanesulfonamidomethyl)thieno[2,3-d]pyrimidine-3-aretic acid]	390 nM	0.2 µM	0.1 µM
